According to US20080063643A1, “Peptide Derived From Hepatitis C Virus” (priority 2003, published 2008):
No end group written: not given here.

Experiments:
[1] = tested on: C1R-A2402 cell stably transfected with NS5A gene; conditions: 6-hour 51Cr release, three E/T ratios
Protocol: In order to prepare a stable transfectant cell line, either pCR3.1-NS5A or pCR3.1-HLA-A3101 (negative control) was transfected to C1R-A2402 cell by electroporation using a Gene Pulser (BioRAD, Richmond, Calif.) These cells were cultured for 30 to 40 days in the presence of geneticin (G418), and then geneticin resistant cells were collected.
Next, cytotoxicity was tested against C1R-A2402 cell that was stably transfected with NS5A gene and used as a target cell.
Then, cytotoxicity was tested by a 6-hour ^51Cr release assay using C1R-A2402 cell that was stably transfected with NS5A gene as a target cell. C1R-A2402 cell that was stably transfected with a negative control gene (HLA-A3101) was used as a negative control, and C1R-A2402 cell that was pulsed with NS5A-2132 peptide was used as a positive control. A 6-hour ^51Cr release assay was carried out at three different E/T ratios. The values are expressed as the mean±SD of percentage of specific lysis.

[2] = tested on: C1R-A2402 cell pulsed with a corresponding peptide; test: 6-hour 51Cr release assay of peptide-stimulated PBMC (Example 2); assay type: cell-based, human; conditions: cells pre-loaded with corresponding peptide versus HIV peptide; three E/T ratios
Protocol: The cytotoxicity of these peptide-stimulated PBMC was examined by a 6-hour ^51Cr release assay (FIG. 15). Peptide-stimulated PBMC showing positive response in the IFN-γ production assay (described above) was cultured and grown in vitro only with IL-2. Then, cytotoxicity against C1R-A2402 cell pulsed with a corresponding peptide or an HIV peptide (negative control) was tested by a standard 6-hour ^51Cr release assay at three different E/T cell ratios.
The peptide-stimulated PBMC used in the experiment shown in FIG. 15 was tested for cytotoxicity against C1R-A2402 cells pulsed with a corresponding peptide in the presence of 20 μg/ml of an anti-HLA-class I (W6/32, IgG2a), anti-HLA-class II (H-DR-1, IgG2a), anti-CD8 (Nu-Ts/c, IgG2a) or anti-CD4 (Nu-Th/i, IgG1) monoclonal antibody (mAb). An anti-CD14 (JML-H14, IgG2a) mAb was used as a negative control.

[3] = tested on: PBMCs from HLA-A24+ patients infected with HCV-1b and HLA-A24+ HDs; test: IFN-γ production by peptide-stimulated PBMC (Example 2); assay type: cell-based, human; conditions: C1R-A2402 cells pulsed with the negative control peptide
Protocol: Peptide-specific CTL precursor cells were detected by the method as described in Hida et al. (Cancer Immunol Immunother 2002; 51: 219-228). For an inhibition assay, 20 μg/ml of anti-HLA class I (W6/32, IgG2a), anti-CD8 (Nu-Ts/c, IgG2a), anti-CD4 (Nu-Th/i, IgG1b) and anti-HLA class II (H-DR-1, IgG) monoclonal antibodies were used.
PBMCs from HLA-A24^+ patients infected with HCV-1b (n=12, 6 CH patients, 3 LC patients, and 3 HCC patients) and HLA-A24^+ HDs (n=5) without HCV infection were cultured with each of the 6 types of peptides (purity >90%) or a control HIV peptide for 13 days, and examined for IFN production in response to C1R-A2402 cell pulsed with a corresponding peptide. PBMCs from HLA-A24^+ HCV-1b^+ patients (n=12) and HDs (n=5) were stimulated with any of the 6 types of peptides in 4 wells (15×10^4/well). On day 14 of the culture, the peptide-stimulated PBMCs (80 to 120×10^4/well) were separately collected from each well and divided into quarters. Two portions of them were tested separately for the ability to produce IFN-γ in response to C1R-A2402 cells pulsed with the corresponding peptide. The remaining two portions were tested with cells using the negative control peptide (HIV). The level of IFN-γ produced in response to the HIV peptide (<50 pg/ml) was subtracted as background.

Sequence	cytotoxicity against NS5A-transfected cells versus negative control gene [1]	cytotoxicity of peptide-stimulated PBMC [2]	level of IFN-γ produced in response to the peptide (background) [3] [pg/mL]
RYAPACKPL [No. 3]	showed a higher cytotoxicity level	showed a significant level of cytotoxicity	–
RYLRDQQLLGI [HIV peptide]	–	–	< 50
